Experimental data reported in publication doi:10.1101/2024.08.13.607785v1 (biorxiv, 2024).

What was measured:
[1] = target: Isoform 2 of Cyclin-dependent kinase 17 ; CDK17 ; Q00537-2 (Homo sapiens, UniProt Q00537); test: biochemical; set-up: species or system human cell line lysate
[2] = target: Isoform 4 of TRAF2 and NCK-interacting protein kinase ; TNIK ; Q9UKE5-4 (Homo sapiens, UniProt Q9UKE5); test: biochemical; set-up: species or system human cell line lysate
[3] = target: Epithelial discoidin domain-containing receptor 1 ; DDR1 ; Q08345 (Homo sapiens, UniProt Q08345); test: biochemical; set-up: species or system human cell line lysate
Epithelial discoidin domain-containing receptor 1 ; DDR1 ; Q08345, sequence (Q08345 whole entry, the tested form may be a part): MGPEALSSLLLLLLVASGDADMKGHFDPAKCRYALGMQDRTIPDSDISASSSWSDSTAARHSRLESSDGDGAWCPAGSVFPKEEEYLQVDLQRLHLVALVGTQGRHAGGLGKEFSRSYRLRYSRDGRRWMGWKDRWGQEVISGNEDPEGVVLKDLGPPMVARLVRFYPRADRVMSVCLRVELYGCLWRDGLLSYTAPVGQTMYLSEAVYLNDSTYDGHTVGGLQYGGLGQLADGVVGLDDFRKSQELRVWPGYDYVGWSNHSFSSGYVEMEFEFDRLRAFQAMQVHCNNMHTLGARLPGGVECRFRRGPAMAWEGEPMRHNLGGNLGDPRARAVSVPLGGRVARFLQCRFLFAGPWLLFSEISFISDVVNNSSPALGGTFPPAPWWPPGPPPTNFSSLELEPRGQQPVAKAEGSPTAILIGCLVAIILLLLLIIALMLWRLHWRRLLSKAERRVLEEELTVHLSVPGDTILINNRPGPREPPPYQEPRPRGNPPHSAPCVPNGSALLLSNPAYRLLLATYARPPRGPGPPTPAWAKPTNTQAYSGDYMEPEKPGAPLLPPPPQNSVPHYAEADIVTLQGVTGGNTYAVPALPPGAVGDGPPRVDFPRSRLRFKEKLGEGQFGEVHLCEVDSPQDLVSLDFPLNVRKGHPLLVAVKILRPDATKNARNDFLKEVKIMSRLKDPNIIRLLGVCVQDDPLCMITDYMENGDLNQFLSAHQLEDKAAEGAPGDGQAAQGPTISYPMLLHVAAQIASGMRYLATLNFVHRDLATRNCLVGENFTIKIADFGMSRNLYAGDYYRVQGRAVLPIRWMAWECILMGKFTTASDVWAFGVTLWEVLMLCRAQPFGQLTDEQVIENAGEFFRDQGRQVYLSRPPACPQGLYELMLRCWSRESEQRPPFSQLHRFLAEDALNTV

[4] = target: T1, Discoidin domain-containing receptor 2 ; DDR2 ; Q16832 (Homo sapiens, UniProt Q16832); test: biochemical; set-up: species or system human cell line lysate
T1 sequence (Q16832 1-855): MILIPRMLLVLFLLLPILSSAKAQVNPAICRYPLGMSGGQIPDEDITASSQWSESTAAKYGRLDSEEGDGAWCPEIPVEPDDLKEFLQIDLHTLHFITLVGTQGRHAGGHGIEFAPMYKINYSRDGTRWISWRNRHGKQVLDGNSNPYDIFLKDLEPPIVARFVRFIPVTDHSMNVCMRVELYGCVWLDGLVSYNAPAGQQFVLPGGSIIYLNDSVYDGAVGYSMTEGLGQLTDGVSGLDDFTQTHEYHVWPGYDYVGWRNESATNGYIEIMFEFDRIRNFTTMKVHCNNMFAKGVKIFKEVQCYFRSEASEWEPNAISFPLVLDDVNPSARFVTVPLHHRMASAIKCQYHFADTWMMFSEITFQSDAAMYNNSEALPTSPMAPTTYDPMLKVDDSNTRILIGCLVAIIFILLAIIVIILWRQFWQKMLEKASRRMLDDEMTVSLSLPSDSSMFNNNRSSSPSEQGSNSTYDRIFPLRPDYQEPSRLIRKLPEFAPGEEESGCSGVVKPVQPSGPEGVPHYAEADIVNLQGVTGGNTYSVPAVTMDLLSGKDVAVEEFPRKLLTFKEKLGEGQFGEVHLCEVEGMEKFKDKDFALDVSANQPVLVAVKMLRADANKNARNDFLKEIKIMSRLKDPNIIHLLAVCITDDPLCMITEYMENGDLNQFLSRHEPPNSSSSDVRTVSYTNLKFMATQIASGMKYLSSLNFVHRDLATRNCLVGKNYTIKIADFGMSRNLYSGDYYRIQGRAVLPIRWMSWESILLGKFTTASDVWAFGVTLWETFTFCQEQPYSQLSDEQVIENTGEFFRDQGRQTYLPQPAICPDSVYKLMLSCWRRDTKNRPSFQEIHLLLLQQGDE

[5] = target: Cyclin-dependent-like kinase 5 ; CDK5 ; Q00535 (Homo sapiens, UniProt Q00535); test: biochemical; set-up: species or system human cell line lysate
Cyclin-dependent-like kinase 5 ; CDK5 ; Q00535, sequence (Q00535 whole entry, one chain of several): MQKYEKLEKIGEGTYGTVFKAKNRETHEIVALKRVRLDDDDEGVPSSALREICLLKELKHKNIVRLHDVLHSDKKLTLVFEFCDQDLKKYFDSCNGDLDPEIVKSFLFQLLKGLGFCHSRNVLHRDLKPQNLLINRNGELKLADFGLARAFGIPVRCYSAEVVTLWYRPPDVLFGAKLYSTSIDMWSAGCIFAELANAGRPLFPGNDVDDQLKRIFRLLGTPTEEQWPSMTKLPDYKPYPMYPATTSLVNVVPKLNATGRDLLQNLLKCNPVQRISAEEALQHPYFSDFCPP

[6] = target: Cyclin-dependent kinase 6 ; CDK6 ; Q00534 (Homo sapiens, UniProt Q00534); test: biochemical; set-up: species or system human cell line lysate
Cyclin-dependent kinase 6 ; CDK6 ; Q00534, sequence (Q00534 whole entry, one chain of several): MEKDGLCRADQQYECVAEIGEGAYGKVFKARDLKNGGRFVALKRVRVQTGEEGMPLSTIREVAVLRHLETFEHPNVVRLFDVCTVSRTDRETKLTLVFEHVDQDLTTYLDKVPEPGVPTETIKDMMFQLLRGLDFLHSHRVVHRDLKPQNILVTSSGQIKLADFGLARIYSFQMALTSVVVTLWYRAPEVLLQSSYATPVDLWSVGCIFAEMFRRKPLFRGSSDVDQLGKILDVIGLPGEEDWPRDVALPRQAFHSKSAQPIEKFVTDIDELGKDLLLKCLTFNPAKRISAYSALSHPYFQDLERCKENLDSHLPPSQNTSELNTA

[7] = target: Tyrosine-protein kinase HCK ; HCK ; P08631 (Homo sapiens, UniProt P08631); set-up: species or system mixed lysate of K562, MV4-11, THP-1, NCI-H1155; details: DDA-MS residual binding; binder
Tyrosine-protein kinase HCK ; HCK ; P08631, sequence (P08631 whole entry): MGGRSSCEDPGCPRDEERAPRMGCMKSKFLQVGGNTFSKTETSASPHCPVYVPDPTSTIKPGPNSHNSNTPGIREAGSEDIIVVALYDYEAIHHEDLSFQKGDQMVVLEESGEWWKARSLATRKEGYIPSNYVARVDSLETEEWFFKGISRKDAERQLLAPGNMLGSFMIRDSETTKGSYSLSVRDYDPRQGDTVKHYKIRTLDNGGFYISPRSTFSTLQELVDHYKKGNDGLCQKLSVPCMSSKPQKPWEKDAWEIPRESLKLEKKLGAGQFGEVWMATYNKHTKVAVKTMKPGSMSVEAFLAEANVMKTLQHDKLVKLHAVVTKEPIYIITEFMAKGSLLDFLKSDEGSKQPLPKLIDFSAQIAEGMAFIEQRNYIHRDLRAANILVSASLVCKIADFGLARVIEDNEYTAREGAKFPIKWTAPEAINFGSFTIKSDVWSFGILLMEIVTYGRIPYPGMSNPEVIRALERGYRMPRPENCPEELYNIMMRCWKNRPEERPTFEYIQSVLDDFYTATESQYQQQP

[8] = target: Ephrin type-A receptor 5 ; EPHA5 ; P54756 (Homo sapiens, UniProt P54756); set-up: species or system mixed lysate of K562, MV4-11, THP-1, NCI-H1155; details: DDA-MS residual binding; binder
Ephrin type-A receptor 5 ; EPHA5 ; P54756, sequence (P54756 whole entry, the tested form may be a part): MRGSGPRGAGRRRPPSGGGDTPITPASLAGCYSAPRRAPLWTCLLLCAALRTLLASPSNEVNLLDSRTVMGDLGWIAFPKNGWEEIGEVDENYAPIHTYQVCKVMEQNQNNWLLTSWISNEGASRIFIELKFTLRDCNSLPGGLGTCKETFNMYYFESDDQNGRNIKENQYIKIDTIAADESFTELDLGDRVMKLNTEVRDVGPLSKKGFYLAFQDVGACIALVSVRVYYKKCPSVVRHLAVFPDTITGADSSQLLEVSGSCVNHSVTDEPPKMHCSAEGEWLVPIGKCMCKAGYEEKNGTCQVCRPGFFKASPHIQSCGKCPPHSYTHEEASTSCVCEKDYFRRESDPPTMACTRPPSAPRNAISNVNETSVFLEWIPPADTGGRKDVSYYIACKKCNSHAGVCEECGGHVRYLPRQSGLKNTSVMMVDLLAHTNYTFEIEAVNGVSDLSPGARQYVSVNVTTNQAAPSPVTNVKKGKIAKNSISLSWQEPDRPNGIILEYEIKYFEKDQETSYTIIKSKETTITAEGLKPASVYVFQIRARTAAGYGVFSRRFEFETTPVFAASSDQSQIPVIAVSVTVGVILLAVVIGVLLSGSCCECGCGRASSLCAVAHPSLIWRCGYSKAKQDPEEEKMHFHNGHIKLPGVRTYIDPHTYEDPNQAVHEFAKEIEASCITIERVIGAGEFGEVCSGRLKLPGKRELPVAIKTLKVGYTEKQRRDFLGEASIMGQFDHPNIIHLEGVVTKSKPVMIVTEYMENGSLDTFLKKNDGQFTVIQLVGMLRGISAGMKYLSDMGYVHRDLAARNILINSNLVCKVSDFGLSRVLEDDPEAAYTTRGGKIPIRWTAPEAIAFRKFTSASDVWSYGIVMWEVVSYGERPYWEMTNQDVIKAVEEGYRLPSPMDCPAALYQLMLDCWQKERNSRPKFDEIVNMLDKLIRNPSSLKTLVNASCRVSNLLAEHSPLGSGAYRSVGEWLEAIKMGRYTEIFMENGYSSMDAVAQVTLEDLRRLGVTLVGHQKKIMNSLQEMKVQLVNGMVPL

[9] = target: LIM domain kinase 1 ; LIMK1 ; P53667 (Homo sapiens, UniProt P53667); set-up: species or system mixed lysate of K562, MV4-11, THP-1, NCI-H1155; details: DDA-MS residual binding; binder
[10] = target: LIM domain kinase 2 ; LIMK2 ; P53671 (Homo sapiens, UniProt P53671); set-up: species or system mixed lysate of K562, MV4-11, THP-1, NCI-H1155; details: DDA-MS residual binding; binder
LIM domain kinase 2 ; LIMK2 ; P53671, sequence (P53671 whole entry, the tested form may be a part): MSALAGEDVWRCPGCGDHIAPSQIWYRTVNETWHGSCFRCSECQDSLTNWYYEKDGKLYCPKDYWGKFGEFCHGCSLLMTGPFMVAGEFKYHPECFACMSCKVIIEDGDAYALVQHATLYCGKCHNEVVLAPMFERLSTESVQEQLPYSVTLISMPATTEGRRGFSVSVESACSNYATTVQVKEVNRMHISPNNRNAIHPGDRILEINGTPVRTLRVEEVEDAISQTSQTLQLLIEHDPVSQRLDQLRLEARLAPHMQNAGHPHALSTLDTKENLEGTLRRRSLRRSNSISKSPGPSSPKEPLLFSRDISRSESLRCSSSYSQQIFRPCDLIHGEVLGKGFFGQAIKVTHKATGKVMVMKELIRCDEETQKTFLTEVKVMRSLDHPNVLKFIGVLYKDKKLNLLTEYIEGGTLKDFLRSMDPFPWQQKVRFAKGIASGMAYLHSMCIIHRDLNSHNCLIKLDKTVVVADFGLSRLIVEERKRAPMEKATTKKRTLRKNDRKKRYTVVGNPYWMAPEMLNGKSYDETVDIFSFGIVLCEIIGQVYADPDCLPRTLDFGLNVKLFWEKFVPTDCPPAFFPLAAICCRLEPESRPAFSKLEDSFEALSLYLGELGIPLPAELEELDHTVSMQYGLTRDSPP

[11] = target: Serine/threonine-protein kinase SIK2 ; SIK2 ; Q9H0K1 (Homo sapiens, UniProt Q9H0K1); set-up: species or system mixed lysate of K562, MV4-11, THP-1, NCI-H1155; details: DDA-MS residual binding; binder
[12] = target: Tyrosine-protein kinase Fgr ; FGR ; P09769 (Homo sapiens, UniProt P09769); set-up: species or system mixed lysate of K562, MV4-11, THP-1, NCI-H1155; details: binder
Tyrosine-protein kinase Fgr ; FGR ; P09769, sequence (P09769 whole entry): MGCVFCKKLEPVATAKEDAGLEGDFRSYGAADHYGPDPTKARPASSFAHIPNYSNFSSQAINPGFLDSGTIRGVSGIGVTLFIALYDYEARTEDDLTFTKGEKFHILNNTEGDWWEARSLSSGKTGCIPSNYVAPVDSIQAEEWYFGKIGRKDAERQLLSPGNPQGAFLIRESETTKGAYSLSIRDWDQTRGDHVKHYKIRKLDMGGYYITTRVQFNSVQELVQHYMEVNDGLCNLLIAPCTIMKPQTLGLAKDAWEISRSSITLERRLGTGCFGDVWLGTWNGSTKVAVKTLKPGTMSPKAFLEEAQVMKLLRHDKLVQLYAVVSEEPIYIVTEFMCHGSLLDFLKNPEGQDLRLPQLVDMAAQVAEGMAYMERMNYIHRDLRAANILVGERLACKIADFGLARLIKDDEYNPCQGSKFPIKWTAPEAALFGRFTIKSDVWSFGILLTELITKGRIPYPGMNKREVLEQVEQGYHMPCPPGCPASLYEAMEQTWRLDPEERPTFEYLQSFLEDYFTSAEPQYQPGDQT

Isoform 2 of Cyclin-dependent kinase 17 ; CDK17 ; Q00537-2, sequence (Q00537 whole entry, canonical isoform, one chain of several): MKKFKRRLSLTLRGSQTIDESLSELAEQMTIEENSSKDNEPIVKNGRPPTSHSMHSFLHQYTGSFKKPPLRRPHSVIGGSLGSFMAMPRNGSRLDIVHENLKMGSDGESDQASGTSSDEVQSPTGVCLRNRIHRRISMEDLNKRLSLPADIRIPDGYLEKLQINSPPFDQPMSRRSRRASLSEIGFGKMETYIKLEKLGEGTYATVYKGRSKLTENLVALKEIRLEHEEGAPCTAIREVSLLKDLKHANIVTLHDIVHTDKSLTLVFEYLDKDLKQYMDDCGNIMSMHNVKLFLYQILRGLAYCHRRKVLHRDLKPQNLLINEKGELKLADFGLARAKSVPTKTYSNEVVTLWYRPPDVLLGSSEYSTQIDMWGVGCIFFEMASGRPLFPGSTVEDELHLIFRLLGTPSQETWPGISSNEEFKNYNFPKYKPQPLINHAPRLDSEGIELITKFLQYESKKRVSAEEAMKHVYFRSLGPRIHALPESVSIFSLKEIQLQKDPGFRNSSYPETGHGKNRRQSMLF

COc1cc(F)ccc1-c1ncnc(Nc2cccc(C[S@](C)(=N)=O)c2)n1 [BAY-1143572]
IC50 [1]: > 10 µM | IC50 [2]: > 10 µM | IC50 [3]: > 10 µM | IC50 [4]: > 10 µM

COc1cc(F)ccc1-c1cc(Nc2cc(CS(C)(=N)=O)ccn2)ncc1F (stereo not drawn) [BAY-1251152]
IC50 [5]: > 10 µM | IC50 [6]: > 10 µM

Cc1nc(Nc2ncc(C(=O)Nc3c(C)cccc3Cl)s2)cc(N2CCN(CCO)CC2)n1 [dasatinib]
DDA-MS / % Intensity (30 µM/DMSO) [7]: 2.041% | DDA-MS / % Intensity (30 µM/DMSO) [8]: 2.68% | DDA-MS / % Intensity (30 µM/DMSO) [9]: 23.79% | DDA-MS / % Intensity (30 µM/DMSO) [10]: 7.37% | DDA-MS / % Intensity (30 µM/DMSO) [11]: 1.826% | DDA-MS / % Intensity (30 µM/DMSO) [12]: 3.884%
